Like-named read-outs stand apart in the source and are kept apart here.
Test: Half-life of ADR destruction by UVA light in the presence of test compounds (decrease in absorbance at 480 nm)
Format: physicochemical
[1] = UVA light, 100 μM test compound alone
[2] = UVA light, 100 μM test compound with 0.5 μM riboflavin
[3] = UVA light, test compound alone, +4% DMSO
[4] = UVA light, with 0.5 μM riboflavin, +4% DMSO

| Compound | Half-Life of ADR Destruction, 100 μM Test Compound [1] | Half-Life of ADR Destruction, 100 μM Test Compound and 0.5 μM Riboflavin [2] | further results |
| --- | --- | --- | --- |
| OCCc1ccc2ccccc2c1 [2-Naphthaleneethanol] | 50.2 min | 33.5 min | – |
| OCc1ccc2ccccc2c1 [2-Naphthalenemethanol] | – | 50.2 min | – |
| O=S(=O)(O)c1ccc2ccccc2c1 [2-Naphthalenesulfonic acid] | 42.0 min | – | – |
| CC(=O)Oc1ccc2ccccc2c1 [2-Naphthyl acetate] | – | – | Half-Life of ADR Destruction, 100 μM Test Compound [3]: 43.0 min; Half-Life of ADR Destruction, 100 μM Test Compound and 0.5 μM Riboflavin [4]: 33.5 min |
| O=C(O)c1ccccc1-c1ccccc1 [2-Phenyl Benzoic Acid] | 43.0 min | 43.0 min | – |
| c1ccc(-c2cc3ccccc3[nH]2)cc1 [2-Phenyl Indole] | – | 14.3 min | – |
| O=C1CC(c2ccccc2)Oc2ccccc21 (stereo not shown) [2-Phenylchromanone (Flavanone), 2-Phenylchromanone] | – | 50.2 min | – |
| CC=Cc1ccccc1O [2-Propenyl Phenol] | – | – | Half-Life of ADR Destruction, 100 μM Test Compound: 50.2 min |
| CCCc1ccccc1N [2-Propyl Aniline] | – | 9.41 min | – |
| CCC(C)c1ccccc1N (stereo not shown) [2-sec-Butyl Aniline] | – | 10.4 min | – |
| COc1ccc(C(C)=O)c(O)c1 [2′-Hydroxy-4-methoxyaceotphenone] | – | – | Half-Life of ADR Destruction, 100 μM Test Compound: 75.3 min |
| CC(=O)c1ccccc1O [2′-Hydroxyacetophenone] | 50.2 min | 43.0 min | – |
| COc1ccccc1C(C)=O [2′-Methoxyacetophenone] | 25.1 min | 21.5 min | – |
| O=C(c1ccc(C(=O)O)c(C(=O)O)c1)c1ccc(C(=O)O)c(C(=O)O)c1 [3,3′,4,4′-Benzophenone-tetracarboxylic acid] | 43.0 min | – | – |
| Nc1cccc(S(=O)(=O)c2cccc(N)c2)c1 [3,3′-Diamino Phenylsulfone] | – | – | Half-Life of ADR Destruction, 100 μM Test Compound and 0.5 μM Riboflavin: 3.81 min |
| O=C1CCc2ccccc2N1 [3,4-Dihydro-2(1H)-quinolinone] | – | – | Half-Life of ADR Destruction, 100 μM Test Compound and 0.5 μM Riboflavin: 20.1 min |
| NCc1ccc(O)c(O)c1 [3,4-Dihydroxy Benzylamine] | – | 150.3 min | – |
| O=C(O)C=Cc1ccc(O)c(O)c1 [3,4-Dihydroxy Cinnamic Acid] | 75.3 min | – | – |
| NCCc1ccc(O)c(O)c1 [3,4-Dihydroxy Phenethylamine (Dopamine), 3,4-Dihydroxy Phenethylamine] | – | 301.0 min | – |
| COc1ccc(C=CC(=O)O)cc1OC [3,4-Dimethoxy Cinnamic Acid] | 43.0 min | 5.68 min | – |
| Nc1ccc(C(=O)c2cccc(N)c2)cc1 [3,4′-Diamino-benzophenone] | – | 15.8 min | – |
| Nc1cc(N)cc(C(=O)O)c1 [3,5-Diamino Benzoic Acid] | – | 75.3 min | – |

| Compound | Half-Life of ADR Destruction, 100 μM Test Compound [1] | Half-Life of ADR Destruction, 100 μM Test Compound and 0.5 μM Riboflavin [2] | further results |
| --- | --- | --- | --- |
| Nc1cc(N)cc(CO)c1 [3,5-Diamino Benzyl Alcohol] | – | 75.3 min | – |
| Nc1cc(F)cc(F)c1 [3,5-Difluoro Aniline] | – | 15.1 min | – |
| COc1cc(C=CC(=O)O)cc(OC)c1O [3,5-Dimethoxy-4-Hydroxy Cinnamic Acid] | 75.3 min | 50.2 min | – |
| Cc1cc(C)cc(N)c1 [3,5-Dimethyl Aniline] | – | 100.4 ± 70.9 min | – |
| Nc1cc([N+](=O)[O-])cc([N+](=O)[O-])c1 [3,5-Dinitro Aniline] | – | – | Half-Life of ADR Destruction, 100 μM Test Compound and 0.5 μM Riboflavin: 75.3 min |
| COc1ccc2cc(C(=O)CCC(=O)O)c(OC)cc2c1 [3,6-Dimethoxy-γ-oxo-2-naphthalenebutyric acid] | 30.1 min | 3.86 min | – |
| O=C(O)CCOc1cccc2ccccc12 [3-(1-naphthyloxy) propionic acid] | 75.3 min | – | – |
| O=C(O)C=Cc1ccc2ccccc2c1 [3-(2-Naphthyl)acrylic acid] | – | 43.0 min | – |
| N[C@@H](Cc1ccc2ccccc2c1)C(=O)O [3-(2-Naphthyl)alanine] | – | 27.4 min | – |
| O=C(O)CCc1ccc(O)c(O)c1 [3-(3,4-Dihydroxyphenyl) Propionic Acid] | 75.3 min | – | – |
| COc1ccc(CCCO)cc1OC [3-(3,4-Dimethoxyphenyl)-1-Propanol] | 43.0 min | 4.78 min | – |
| Nc1ccc(CCC(=O)O)cc1 [3-(4-Aminophenyl) Propionic Acid] | – | 6.41 min | – |
| O=C(O)CCOc1ccc(-c2ccccc2)cc1 [3-(4-Biphenylyloxy) Propionic Acid] | 43.0 min | 43.0 min | – |
| O=C(O)CCc1ccc(O)cc1 [3-(4-Hydroxyphenyl) Propionic Acid] | – | 75.3 min | – |
| COc1ccc(CCC(=O)O)cc1 [3-(4-Methoxyphenyl) Propionic Acid] | 75.3 min | 12.5 min | – |
| COc1ccc(CCCO)cc1 [3-(4-Methoxyphenyl)-1-Propanol] | 43.0 min | 1.68 min | – |
| CC(=O)Oc1c[nH]c2ccccc12 [3-Acetoxyindole] | 25.1 min | 5.90 min | – |
| CC(=O)c1ccc2[nH]c3ccccc3c2c1 [3-Acetylcarbazole] | – | – | Half-Life of ADR Destruction, 100 μM Test Compound [3]: 30.1 min; Half-Life of ADR Destruction, 100 μM Test Compound and 0.5 μM Riboflavin [4]: 23.2 min |
| CC(=O)c1c[nH]c2ccccc12 [3-Acetylindole] | – | 33.5 min | – |
| Nc1cccc(S(=O)(=O)O)c1 [3-Amino Benzenesulfonic acid] | – | 17.7 min | – |
| Nc1cccc(C(=O)O)c1 [3-Amino Benzoic Acid] | – | 16.7 min | – |
| Nc1cccc(CO)c1 [3-Amino Benzyl Alcohol] | – | 7.34 min | – |

| Compound | Half-Life of ADR Destruction, 100 μM Test Compound [1] | Half-Life of ADR Destruction, 100 μM Test Compound and 0.5 μM Riboflavin [2] | further results |
| --- | --- | --- | --- |
| Nc1cccc(CC(=O)O)c1 [3-Amino Phenylacetic acid] | – | 13.7 min | – |
| Cc1c(N)cccc1C(=O)O [3-Amino-2-Methyl Benzoic Acid] | – | 23.2 min | – |
| Cc1c(N)cccc1CO [3-Amino-2-Methyl Benzyl Alcohol] | – | 33.5 min | – |
| Nc1cc(C(=O)O)ccc1O [3-Amino-4-Hydroxy Benzoic Acid] | – | 75.3 min | – |
| Nc1cc(C[C@H](N)C(=O)O)ccc1O [3-Amino-4-Hydroxy Phenylalanine] | – | 100.3 min | – |
| Cc1ccc(C(=O)O)cc1N [3-Amino-4-Methyl Benzoic Acid] | – | 13.7 min | – |
| Cc1ccc(CO)cc1N [3-Amino-4-Methyl Benzyl Alcohol] | – | 23.2 min | – |
| Nc1ccc(O)c(C(=O)O)c1 [3-Amino-6-Hydroxy Benzoic Acid] | – | 301.0 min | – |
| Cc1ccc(N)cc1CO [3-Amino-6-Methyl Benzyl Alcohol] | – | 16.7 min | – |
| NC(=O)c1cccc(N)c1 [3-Aminobenzamide] | – | 6.87 ± 1.20 min | – |
| Nc1cc2ccccc2cc1C(=O)O [3-Atninonaphthalene-2-carboxylic acid] | 75.3 min | 50.2 min | – |
| O=C(O)c1cccc(C(=O)c2ccccc2)c1 [3-Benzophenone-carboxylic acid] | – | – | Half-Life of ADR Destruction, 100 μM Test Compound: 20.1 min; Half-Life of ADR Destruction, 100 μM Test Compound and 0.5 μM Riboflavin: 15.8 min |
| O=C(c1ccccc1)c1cccnc1C(=O)O [3-Benzoylpyridine-2-carboxylic acid] | 43.0 min | 43.0 min | – |
| Nc1cccc(Cc2ccccc2)c1 [3-Benzylaniline] | – | 6.54 min | – |
| Nc1cccc(OCc2ccccc2)c1 [3-Benzyloxyaniline] | – | – | Half-Life of ADR Destruction, 100 μM Test Compound: 43.0 min; Half-Life of ADR Destruction, 100 μM Test Compound and 0.5 μM Riboflavin: 17.7 min |
| O=C(/C=C/c1ccc(O)c(O)c1)O[C@@H]1C[C@](O)(C(=O)O)C[C@@H](O)[C@H]1O [3-Caffeolyquinic Acid] | 100.3 min | 100.3 min | – |
| O=C1COc2ccccc21 [3-Coumaranone] | 11.2 min | 11.2 min | – |
| CCc1cccc(N)c1 [3-Ethyl Aniline] | – | 20.1 min | – |
| Nc1cccc(F)c1 [3-Fluoro Aniline] | – | 5.90 min | – |
| O=C(O)c1cccc(O)c1 [3-Hydroxy Benzoic Acid] | – | 23.2 min | – |
| N[C@@H](Cc1cccc(O)c1)C(=O)O [3-Hydroxy Phenylalanine] | – | 34.2 ± 5.9 min | – |
